Test results from patent US20150342882A1, “METHODS OF TREATMENT USING CADOTRIL COMPOSITIONS” (Johnson & Johnson Consumer Inc., priority 2012, published 2015).
≈ marks a conversion by molar mass, not a printed value.

Assay: Water solubility of racecadotril
Type: physicochemical
Conditions: room temperature conditions

- solubility: ~10 µg/mL (≈ 25.9 µM)
SMILES: CC(=O)SCC(Cc1ccccc1)C(=O)NCC(=O)OCc1ccccc1 (racemic) [Racecadotril, (RS)-benzyl N-[3-(acetylthio)-2-benzylpropanoyl]glycinate]
